Literature values, collected in patent US20090130200A1, “GRANULES FOR CONTROLLED RELEASE OF TAMSULOSIN” (SIEGFRIED GENERICS INTERNATIONAL AG, priority 2004, published 2009).
Structures can show the parent of a compound that is named as a salt.

solubility in water: only slightly soluble in water
SMILES: CCOc1ccccc1OCCN[C@H](C)Cc1ccc(OC)c(S(N)(=O)=O)c1 [Tamsulosin hydrochloride]
